Results taken from ChEMBL document CHEMBL3507680, “University of Dundee, Gates Library screen for HepG2 cell viability”.

assay: Human HepG2 cell viability assay in 384 well format; format: toxicity, cell-based; design: dose 125 nL, time 70.5 hour; cytotoxicity at 70.5 h: concentration not given beside the values; conditions: HepG2 cells, read-out: Inhibition

**Q.** Which cytotoxicity at 70.5 h does the source give for `Cc1cncc(C2CCN(Cc3cnc(C)nc3)CC2)n1` here?
**A.** Its cytotoxicity at 70.5 h is -7.22%.

**Q.** With `COc1c(CNC2CCN(CC(=O)NC3CC3)CC2)c(C)nn1C` as the compound, how does the cytotoxicity at 70.5 h read?
**A.** Its cytotoxicity at 70.5 h is 2.59%.

**Q.** Which cytotoxicity at 70.5 h does the source give for `CCc1ccccc1CN1CCC(N2CCCC2=O)CC1` here?
**A.** Its cytotoxicity at 70.5 h is -8.77%.

**Q.** With `CC(C)CN1CCCC1c1cc[nH]n1` (stereo not given) as the compound, how does the cytotoxicity at 70.5 h read?
**A.** The cytotoxicity at 70.5 h was -1.98%.

**Q.** For `Cn1ccc2ccc(C(=O)N3CCC[C@H]3C(=O)N3CCOCC3)cc21`, which cytotoxicity at 70.5 h is on record?
**A.** Its cytotoxicity at 70.5 h is -11.1%.

**Q.** With `O=S(=O)(CCCS(=O)(=O)c1ccc2c(c1)OCCCO2)c1ccccc1` as the compound, how does the cytotoxicity at 70.5 h read?
**A.** The cytotoxicity at 70.5 h was -7.8%.

**Q.** With `CC(=O)Nc1nc(C(=O)NCc2ccnc(N3CCCC3)c2)cs1` as the compound, how does the cytotoxicity at 70.5 h read?
**A.** Its cytotoxicity at 70.5 h is -6.6%.

**Q.** Which cytotoxicity at 70.5 h does the source give for `O=C(NC1CCCCC1)N1CCC(n2cc(-c3ccccn3)nn2)CC1` here?
**A.** Its cytotoxicity at 70.5 h is -6.7%.

**Q.** Which cytotoxicity at 70.5 h does the source give for `CCc1cc(N[C@H](C(N)=O)[C@@H](C)CC)n2nccc2n1` here?
**A.** The cytotoxicity at 70.5 h was -1.65%.

**Q.** Which cytotoxicity at 70.5 h does the source give for `COc1cccc(-c2noc3c2CN(c2nc(C)ncc2C)CC3)c1` here?
**A.** Its cytotoxicity at 70.5 h is -9.61%.

**Q.** For `Cc1nc(N)nc(C)c1CC(=O)N1CCCN(CC2CC2)C(C(C)C)C1` (stereo not given), which cytotoxicity at 70.5 h is on record?
**A.** The cytotoxicity at 70.5 h was -8.22%.

**Q.** Which cytotoxicity at 70.5 h does the source give for `COc1cc(N2CCCC(c3nccn3Cc3ccncc3)C2)ncn1` (stereo not given) here?
**A.** The cytotoxicity at 70.5 h was -6.57%.

**Q.** Which cytotoxicity at 70.5 h does the source give for `O=C(NCCC(=O)N1CCCC1)c1cccnc1` here?
**A.** The cytotoxicity at 70.5 h was 17.4%.

**Q.** With `CCOC[C@H]1CC[C@H]2[C@H](CCN2C(=O)c2ccncc2F)O1` as the compound, how does the cytotoxicity at 70.5 h read?
**A.** Its cytotoxicity at 70.5 h is -8.92%.

**Q.** Which cytotoxicity at 70.5 h does the source give for `NCCCC(=O)N1CCC2(CC1)CN(C(=O)c1ccc(Cl)cc1)CCO2` here?
**A.** Its cytotoxicity at 70.5 h is -12.4%.

**Q.** For `Cc1ccc(C)c(NC(=O)Cn2nc(C)c(C#N)c2N)c1`, which cytotoxicity at 70.5 h is on record?
**A.** The cytotoxicity at 70.5 h was -10.2%.

**Q.** With `Cc1c(Cl)cccc1NC(=O)CN(Cc1cccnc1)C(C)C` as the compound, how does the cytotoxicity at 70.5 h read?
**A.** Its cytotoxicity at 70.5 h is 1.97%.

**Q.** Which cytotoxicity at 70.5 h does the source give for `FC(F)(F)C1CCCn2c(CNCc3cccs3)nnc21` (stereo not given) here?
**A.** The cytotoxicity at 70.5 h was -7.88%.

**Q.** Which cytotoxicity at 70.5 h does the source give for `CCc1nnc(CNC2CCCN(Cc3noc(C4CC4)n3)C2)o1` (stereo not given) here?
**A.** Its cytotoxicity at 70.5 h is -9.18%.

**Q.** With `CN1CCN(Cc2ccncc2)Cc2cccnc21` as the compound, how does the cytotoxicity at 70.5 h read?
**A.** Its cytotoxicity at 70.5 h is -9.78%.

**Q.** With `CN(c1ncnc2sccc12)C1CCCN(c2cccnn2)C1` (stereo not given) as the compound, how does the cytotoxicity at 70.5 h read?
**A.** The cytotoxicity at 70.5 h was -13.9%.

**Q.** With `COc1ccc(C(C)Nc2cnn(C)c(=O)c2Cl)cc1OC` (stereo not given) as the compound, how does the cytotoxicity at 70.5 h read?
**A.** The cytotoxicity at 70.5 h was -3.5%.

**Q.** With `O=S1(=O)COCCN1Cc1ccc(Cl)c(F)c1` as the compound, how does the cytotoxicity at 70.5 h read?
**A.** The cytotoxicity at 70.5 h was -6.23%.

**Q.** Which cytotoxicity at 70.5 h does the source give for `c1cncc(CN2CCn3c(Cn4cncn4)cnc3C2)c1` here?
**A.** Its cytotoxicity at 70.5 h is -7.44%.

**Q.** For `C[C@@H]1CN(S(=O)(=O)c2ccc(F)cc2Cl)C[C@]1(C)O`, which cytotoxicity at 70.5 h is on record?
**A.** The cytotoxicity at 70.5 h was -0.172%.

**Q.** For `Cn1c(=O)c2cc(C(=O)NCCc3ccccc3)ccc2n(C)c1=O`, which cytotoxicity at 70.5 h is on record?
**A.** Its cytotoxicity at 70.5 h is -1.15%.

**Q.** Which cytotoxicity at 70.5 h does the source give for `Cc1cccnc1C(Nc1nccc(C2CCCC2)n1)C1CC1` (stereo not given) here?
**A.** The cytotoxicity at 70.5 h was 0.357%.

**Q.** For `Cn1cc(-c2csc(N3CCN(c4nccs4)CC3)n2)cn1`, which cytotoxicity at 70.5 h is on record?
**A.** The cytotoxicity at 70.5 h was -0.763%.

**Q.** With `CCN1CC(C(=O)NCc2nc(C3CCCCC3)no2)CC1=O` (stereo not given) as the compound, how does the cytotoxicity at 70.5 h read?
**A.** The cytotoxicity at 70.5 h was 5.22%.

**Q.** For `COc1cc(N2CC[C@@H]3OCCN(C)[C@H]3CC2)ncn1`, which cytotoxicity at 70.5 h is on record?
**A.** The cytotoxicity at 70.5 h was -5.78%.

**Q.** For `CC(C)NC(=O)C1CN(C(=O)c2ccc(F)cc2)CC12CCOCC2` (stereo not given), which cytotoxicity at 70.5 h is on record?
**A.** Its cytotoxicity at 70.5 h is 23.6%.

**Q.** For `Cn1cc(C(=O)Nc2ccnc(Oc3ccccc3)c2)ccc1=O`, which cytotoxicity at 70.5 h is on record?
**A.** The cytotoxicity at 70.5 h was -5.49%.

**Q.** For `CN(C)C(=O)N1CCC2(CC1)CNc1ccc(F)cc12`, which cytotoxicity at 70.5 h is on record?
**A.** Its cytotoxicity at 70.5 h is -2.37%.

**Q.** Which cytotoxicity at 70.5 h does the source give for `Cc1ccccc1CCC1CCCN(Cc2c(C)[nH]c(=O)[nH]c2=O)C1` (stereo not given) here?
**A.** The cytotoxicity at 70.5 h was -8.6%.

**Q.** For `O=C(O)C1CCN(C[C@H]2CC[C@@H](Cc3ccc4c(c3)OCO4)O2)CC1`, which cytotoxicity at 70.5 h is on record?
**A.** Its cytotoxicity at 70.5 h is 8.69%.

**Q.** For `COc1ccc(CN(C)Cn2cc(C)n(-c3cc(C)on3)c2=O)cc1`, which cytotoxicity at 70.5 h is on record?
**A.** The cytotoxicity at 70.5 h was -12.5%.

**Q.** For `O=C(c1cc(=O)[nH]c(=O)[nH]1)N1CCCCC1c1ccc(F)cc1` (stereo not given), which cytotoxicity at 70.5 h is on record?
**A.** Its cytotoxicity at 70.5 h is -6.94%.

**Q.** With `O=C(N1CCCCC1)N1CCN(c2ccc(Cl)nn2)C(=O)C1` as the compound, how does the cytotoxicity at 70.5 h read?
**A.** Its cytotoxicity at 70.5 h is -5.68%.

**Q.** Which cytotoxicity at 70.5 h does the source give for `CNc1cc(N2CCCC2CNCc2cccc(C(N)=O)c2)ncn1` (stereo not given) here?
**A.** Its cytotoxicity at 70.5 h is -2.53%.

**Q.** With `CCn1cc(S(=O)(=O)N(CCc2ccccc2)Cc2ccn(C)n2)cn1` as the compound, how does the cytotoxicity at 70.5 h read?
**A.** Its cytotoxicity at 70.5 h is -11.1%.

**Q.** Which cytotoxicity at 70.5 h does the source give for `COc1ccc(Cl)cc1CCNC(=O)N(C)CC1CCOC1` (stereo not given) here?
**A.** Its cytotoxicity at 70.5 h is -1.13%.

**Q.** For `Cc1ccc(F)cc1-c1ccc(N)nc1`, which cytotoxicity at 70.5 h is on record?
**A.** Its cytotoxicity at 70.5 h is 15.8%.

**Q.** With `CCC1c2ccsc2CCN1C(=O)NCc1ccc(C)nc1` (stereo not given) as the compound, how does the cytotoxicity at 70.5 h read?
**A.** Its cytotoxicity at 70.5 h is -10.2%.

**Q.** Which cytotoxicity at 70.5 h does the source give for `CC1CCCN(c2ncc(C(=O)NCc3ccc(F)c(Cl)c3)c(N)n2)C1` (stereo not given) here?
**A.** Its cytotoxicity at 70.5 h is 19.8%.

**Q.** With `CCNc1ncc(C(=O)NCc2cccc(OC(F)(F)F)c2)cn1` as the compound, how does the cytotoxicity at 70.5 h read?
**A.** The cytotoxicity at 70.5 h was -16.5%.
